Calls of active or inactive are those of the source. The rule behind the calls is not given here.
Tests used:
[1] = AUC (0 to infinity) in fasted BALB/c mouse at 20 mg/kg, iv administered upto 600 mins by HPLC-MS/MS analysis; type: ADME, organism-based; parameters: dose 20 mg/kg, time < 600 min, route iv; settings: in vivo
[2] = Half life in fasted BALB/c mouse at 20 mg/kg, iv administered upto 600 mins by HPLC-MS/MS analysis; type: ADME, organism-based; settings: in vivo
[3] = Tmax in fasted BALB/c mouse at 5 mg/kg, iv administered upto 600 mins by HPLC-MS/MS analysis; type: ADME, organism-based; settings: in vivo
[4] = biological target: T1, Histone-lysine N-methyltransferase, H3 lysine-79 specific (Homo sapiens, UniProt Q8TEK3); assay: Inhibition of DOT1L in human SU-DHL-4 cells assessed as decrease in H3K79 methylation at 1 to 10 uM using histone H3 as substrate incubated for 3 days by immunoblotting assay; type: cell-based; settings: dose 1-10 µM, time 3.0 day, DDE = dose-dependent effect
Target sequence in this assay (Q8TEK3 whole entry, looked up): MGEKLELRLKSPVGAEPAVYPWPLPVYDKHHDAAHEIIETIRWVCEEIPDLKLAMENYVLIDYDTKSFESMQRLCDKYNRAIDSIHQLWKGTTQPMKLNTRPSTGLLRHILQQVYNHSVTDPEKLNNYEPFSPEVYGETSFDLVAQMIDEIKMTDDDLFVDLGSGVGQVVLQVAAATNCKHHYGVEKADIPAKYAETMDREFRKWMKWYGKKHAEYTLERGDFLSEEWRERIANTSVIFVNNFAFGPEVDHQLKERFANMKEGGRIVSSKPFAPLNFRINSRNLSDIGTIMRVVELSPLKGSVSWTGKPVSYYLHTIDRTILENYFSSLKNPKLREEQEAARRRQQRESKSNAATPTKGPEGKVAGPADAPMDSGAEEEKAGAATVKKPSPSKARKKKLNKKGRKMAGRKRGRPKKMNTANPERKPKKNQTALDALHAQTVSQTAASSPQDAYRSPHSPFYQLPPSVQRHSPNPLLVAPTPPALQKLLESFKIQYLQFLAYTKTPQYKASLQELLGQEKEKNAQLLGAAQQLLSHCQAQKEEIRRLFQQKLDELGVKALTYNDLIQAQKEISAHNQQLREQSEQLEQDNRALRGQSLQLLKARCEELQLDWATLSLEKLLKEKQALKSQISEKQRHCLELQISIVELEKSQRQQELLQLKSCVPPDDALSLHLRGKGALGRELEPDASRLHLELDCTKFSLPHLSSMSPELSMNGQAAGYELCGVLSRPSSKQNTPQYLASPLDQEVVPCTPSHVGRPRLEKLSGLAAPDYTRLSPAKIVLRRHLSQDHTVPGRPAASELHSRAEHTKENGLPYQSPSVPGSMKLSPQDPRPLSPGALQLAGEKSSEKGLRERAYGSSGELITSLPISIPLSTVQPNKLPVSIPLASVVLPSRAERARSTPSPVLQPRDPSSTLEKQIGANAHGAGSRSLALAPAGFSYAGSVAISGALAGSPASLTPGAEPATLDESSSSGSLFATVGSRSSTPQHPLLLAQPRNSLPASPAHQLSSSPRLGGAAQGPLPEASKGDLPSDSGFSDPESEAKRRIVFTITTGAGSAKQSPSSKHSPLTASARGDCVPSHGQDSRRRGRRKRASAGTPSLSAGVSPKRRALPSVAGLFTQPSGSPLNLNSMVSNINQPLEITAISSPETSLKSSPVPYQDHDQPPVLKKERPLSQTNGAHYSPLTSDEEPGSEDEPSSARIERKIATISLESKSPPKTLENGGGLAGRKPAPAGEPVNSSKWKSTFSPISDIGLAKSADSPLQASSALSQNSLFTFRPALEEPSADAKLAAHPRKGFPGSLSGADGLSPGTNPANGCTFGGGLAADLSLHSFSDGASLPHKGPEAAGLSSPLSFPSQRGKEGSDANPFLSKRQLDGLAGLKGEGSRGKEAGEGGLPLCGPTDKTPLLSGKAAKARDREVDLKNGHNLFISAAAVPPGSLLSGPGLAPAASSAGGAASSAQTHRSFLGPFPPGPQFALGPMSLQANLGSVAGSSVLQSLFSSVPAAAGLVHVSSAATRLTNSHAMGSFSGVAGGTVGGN

[5] = Tmax in fasted BALB/c mouse at 20 mg/kg, iv administered upto 600 mins by HPLC-MS/MS analysis; type: ADME, organism-based; settings: in vivo
MOLM-13 [6] = assay: Cytotoxicity against human MOLM-13 cells assessed as metabolic activity at 1 to 40 uM incubated for 10 to 15 days by WST-1 assay; type: functional, cell-based; settings: dose 1-40 µM, time 10-15 day
MOLM-13 [7] = assay: Downregulation of MEIS1 gene in human MOLM-13 cells at 10 uM measured after 3 to 10 days by qPCR analysis; type: functional, cell-based; settings: time 3-10 day
[8] = Elimination rate constant in fasted BALB/c mouse at 20 mg/kg, iv administered upto 600 mins by HPLC-MS/MS analysis; type: ADME, organism-based; settings: in vivo
[9] = Volume of distribution in fasted BALB/c mouse at 5 mg/kg, iv administered upto 600 mins by HPLC-MS/MS analysis; type: ADME, organism-based; settings: in vivo
[10] = biological target: T1, Histone-lysine N-methyltransferase, H3 lysine-79 specific; assay: Inhibition of DOT1L in human MOLM-13 cells assessed as decrease in H3K79 methylation at 1 to 10 uM using histone H3 as substrate incubated for 5 days by immunoblotting assay; type: cell-based; settings: dose 1-10 µM, time 5.0 day, DDE = dose-dependent effect
Target sequence in this assay (Q8TEK3 whole entry, looked up): as above

[11] = AUC (0 to t) in fasted BALB/c mouse at 20 mg/kg, iv administered upto 600 mins by HPLC-MS/MS analysis; type: ADME, organism-based; parameters: dose 20 mg/kg, time < 600 min, route iv; settings: in vivo
[12] = Clearance in fasted BALB/c mouse at 5 mg/kg, iv administered upto 600 mins by HPLC-MS/MS analysis; type: ADME, organism-based; settings: in vivo
[13] = Metabolic stability in BALB/c mouse liver microsomes assessed as parent compound remaining measured after 40 mins; type: ADME, Microsome; settings: read-out: Stability
SK-N-MC = assay: Cytotoxicity against human SK-N-MC cells assessed as reduction of cell viability up to 10 uM incubated for 72 hrs by celltiter-glo assay; type: functional, cell-based
OCI-AML-3 = assay: Cytotoxicity against human OCI-AML-3 cells assessed as reduction of cell viability at 20 to 40 uM incubated for 5 to 15 days by DiOC6/ propidium staining based flow cytometry analysis; type: functional; settings: dose 20-40 µM, time 5-15 day
[14] = Microsomal stability in BALB/c mouse liver microsomes assessed as intrinsic clearance; type: ADME, Microsome; settings: read-out: CLH
MV4-11 = assay: Cytotoxicity against human MV4-11 cells assessed as reduction of cell viability up to 10 uM incubated for 72 hrs by celltiter-glo assay; type: functional, cell-based; settings: MV4-11, 72 h
[15] = AUC (0 to t) in fasted BALB/c mouse at 5 mg/kg, iv administered upto 600 mins by HPLC-MS/MS analysis; type: ADME, organism-based; parameters: time < 600 min, dose 5 mg/kg, route iv; settings: in vivo
[16] = AUC (0 to infinity) in fasted BALB/c mouse at 5 mg/kg, iv administered upto 600 mins by HPLC-MS/MS analysis; type: ADME, organism-based; parameters: dose 5 mg/kg, time < 600 min, route iv; settings: in vivo
[17] = Acute toxicity in BALB/c mouse at 20 mg/kg,iv; type: organism-based; settings: in vivo
[18] = Cmax in fasted BALB/c mouse at 20 mg/kg, iv administered upto 600 mins by HPLC-MS/MS analysis; type: ADME, organism-based; parameters: time < 600 min, dose 20 mg/kg, route iv; settings: in vivo
SU-DHL-5 = assay: Cytotoxicity against human SU-DHL-5 cells assessed as reduction of cell viability up to 10 uM incubated for 72 hrs by celltiter-glo assay; type: functional, cell-based; settings: SU-DHL-5, 72 h
[19] = biological target: T1, Histone-lysine N-methyltransferase, H3 lysine-79 specific; assay: Inhibition of DOT1L in human OCI-AML5 cells assessed as decrease in H3K79 methylation at 1 to 10 uM using histone H3 as substrate incubated for 3 days by immunoblotting assay; type: cell-based; settings: dose 1-10 µM, time 3.0 day, DDE = dose-dependent effect
Target sequence in this assay (Q8TEK3 whole entry, looked up): as above

[20] = Volume of distribution in fasted BALB/c mouse at 20 mg/kg, iv administered upto 600 mins by HPLC-MS/MS analysis; type: ADME, organism-based; settings: in vivo
MOLM-13 [21] = assay: Cytotoxicity against human MOLM-13 cells assessed as reduction of cell viability up to 10 uM incubated for 72 hrs by celltiter-glo assay; type: functional, cell-based; settings: MOLM-13, 72 h
MOLM-13 [22] = assay: Cytotoxicity against human MOLM-13 cells assessed as reduction of cell viability at 20 to 40 uM incubated for 5 to 15 days by DiOC6/ propidium staining based flow cytometry analysis; type: functional; settings: dose 20-40 µM, time 5-15 day
[23] = biological target: T1, Histone-lysine N-methyltransferase, H3 lysine-79 specific; assay: Binding affinity to human DOT1L assessed as binding free energy difference
Target sequence in this assay (Q8TEK3 whole entry, looked up): as above

MOLM-13 [24] = assay: Downregulation of HOXA9 gene in human MOLM-13 cells at 10 uM measured after 3 to 10 days by qPCR analysis; type: functional, cell-based; settings: time 3-10 day
[25] = biological target: T1, Histone-lysine N-methyltransferase, H3 lysine-79 specific; assay: Inhibition of human DOT1L by hotspot PMT activity assay
Target sequence in this assay (Q8TEK3 whole entry): as the sequence (Q8TEK3 whole entry, looked up) above

[26] = biological target: T1, Histone-lysine N-methyltransferase, H3 lysine-79 specific; assay: Inhibition of DOT1L in human MOLM-13 cells assessed as decrease in H3K79 methylation at 1 to 10 uM using histone H3 as substrate incubated for 3 days by immunoblotting assay; type: cell-based; settings: dose 1-10 µM, time 3.0 day, DDE = dose-dependent effect
Target sequence in this assay (Q8TEK3 whole entry, looked up): as above

[27] = Clearance in fasted BALB/c mouse at 20 mg/kg, iv administered upto 600 mins by HPLC-MS/MS analysis; type: ADME, organism-based; settings: in vivo
[28] = Elimination rate constant in fasted BALB/c mouse at 5 mg/kg, iv administered upto 600 mins by HPLC-MS/MS analysis; type: ADME, organism-based; settings: BALB/c, in vivo
[29] = Half life in fasted BALB/c mouse at 5 mg/kg, iv administered upto 600 mins by HPLC-MS/MS analysis; type: ADME, organism-based; settings: BALB/c, in vivo
SUD4 = assay: Cytotoxicity against human SU-DHL-4 cells assessed as reduction of cell viability at 20 to 40 uM incubated for 5 to 15 days by DiOC6/ propidium staining based flow cytometry analysis; type: functional; settings: dose 20-40 µM, time 5-15 day
[30] = Cmax in fasted BALB/c mouse at 5 mg/kg, iv administered upto 600 mins by HPLC-MS/MS analysis; type: ADME, organism-based; parameters: time < 600 min, dose 5 mg/kg, route iv; settings: in vivo
[31] = biological target: T1, Histone-lysine N-methyltransferase, H3 lysine-79 specific; assay: Inhibition of DOT1L in human OCI-AML5 cells assessed as decrease in H3K79 methylation at 1 to 10 uM using histone H3 as substrate incubated for 5 days by immunoblotting assay; type: cell-based; settings: dose 1-10 µM, time 5.0 day, DDE = dose-dependent effect
Target sequence in this assay (Q8TEK3 whole entry, looked up): as above

[32] = biological target: T1, Histone-lysine N-methyltransferase, H3 lysine-79 specific; assay: Inhibition of DOT1L in human SU-DHL-4 cells assessed as decrease in H3K79 methylation at 1 to 10 uM using histone H3 as substrate incubated for 5 days by immunoblotting assay; type: cell-based; settings: dose 1-10 µM, time 5.0 day, DDE = dose-dependent effect

CC(C)N(C[C@H]1C[C@@H](c2ccc3c(N)ncnn23)[C@H](O)[C@@H]1O)[C@H]1C[C@@H](CCc2nc3cc(C(C)(C)C)ccc3[nH]2)C1
AUC(0-inf) [1]: 35000 ng·h/mL | half-life [2]: 93.6 min | Tmax [3]: 5 min | Activity [4]: Dde | Tmax [5]: 5 min | Activity (MOLM-13 [6]): Active | Activity (MOLM-13 [7]): Active | k el at 10 h [8]: 0.000123 s⁻¹ | Vd [9]: 1.18 L/kg | Activity [10]: Dde | AUC(0-t) at 10 h [11]: 34700 ng·h/mL | clearance [12]: 14.2 mL/min/kg | remaining at 40 min [13]: 41% | EC50 (SK-N-MC): 8.8 µM | Activity (OCI-AML-3): Active | microsomal CLint [14]: 56 µL/min/mg | EC50 (MV4-11): 1.7 µM | AUC(0-t) at 10 h [15]: 5800 ng·h/mL | AUC(0-inf) [16]: 5850 ng·h/mL | Activity [17]: Non-Toxic | Cmax [18]: 91.2 µg/mL | EC50 (SU-DHL-5): 9 µM | Activity [19]: Dde | Vd [20]: 1.29 L/kg | EC50 (MOLM-13 [21]): 7.7 µM | Activity (MOLM-13 [22]): Active | deltaG [23]: -0.717 kcal/mol | Activity (MOLM-13 [24]): Active | IC50 [25]: 0.0021 µM | Activity [26]: Dde | clearance [27]: 9.54 mL/min/kg | k el at 10 h [28]: 0.000202 s⁻¹ | half-life [29]: 57.2 min | Activity (SUD4): Active | Cmax [30]: 20.6 µg/mL | Activity [31]: Dde | Activity [32]: Dde

From ChEMBL document CHEMBL5154806, “Synthesis and Profiling of Highly Selective Inhibitors of Methyltransferase DOT1L Based on Carbocyclic C-Nucleosides” (J Med Chem, 2022)
